# Assays:
# [1] = tested on: VERO cells; experiment: Cytotoxicity assay (MTT) in VERO cells; assay type: cell-based; conditions: for CC50 mammal cells relative to IC50 for trophozoites: mammal cells: human fibroblasts and VERO cells together
# Experimental: (§1) The cytotoxic effect of these compounds was also evaluated in mammal cell cultures and their CC50 values calculated and depicted in Table 2.
# (§2) We used the cell lines VERO (ATCC:CCL-81) and gingival human fibroblasts (kindly provided by Dra. María Dolores Farfán from Facultad de Odontología, Universidad Nacional Autónoma de México). The assay procedure is described below. Cells were maintained in a DMEM medium supplemented with antibiotic-antimycotic (1X), L-glutamine (1X) and 10% fetal bovine serum. Cells were incubated in 25 mL plastic culture flasks (Nunc) at 37 °C and 5% CO2. After the cell cultures grew to confluence, we determined the cell viability by using Trypan Blue method; then, cells were seeded at 4 × 10^4 cells/well in 100 µL culture medium during 24 hours. […] DMSO was maintained constant at 0.2%; a control was performed by incubating cells with this solvent concentration but in absence of compounds. After incubation time, we measured the cell viability by using MTT (3-(4,5-Dimethyl-2-thiazolyl)-2,5-diphenyl-2H-tetrazolium bromide; Roche Diagnostics) method. Briefly, 10 µL MTT (5 mg/mL) was added to cell cultures and incubated at 37 °C during four hours; then, 100 µL of solution containing 10% SDS and 0.01N HCl was added. Thereafter, the formazan products were spectrophotometrically quantified at 570 nm (Labxystem Uniskan, Manchester). The CC50 (median cytotoxicity concentration) and CI95 (95% confidence interval) values from each experiment were determined from the concentration-percentage plots of cell viability obtained by logistic regression. Statistical analysis was performed using the SPPSS software (version 17.0).
# [2] = Cytotoxicity assay (MTT) in VERO cells; assay type: cell-based; conditions: African green monkey, VERO cells (ATCC CCL-81); 24 hours, MTT; 95% confidence limits in square brackets
# Experimental: as §1, §2
# [3] = Cytotoxicity assay (MTT) in human fibroblasts; assay type: cell-based; conditions: human, gingival human fibroblasts, 95% confidence limits in square brackets
# Experimental: as §1, §2
# [4] = biological target: T1, GlTIM (Giardia intestinalis, UniProt P36186, C202A); experiment: Quantification of free Cys of derivatized GlTIM (Ellman's reagent); assay type: biochemical, Giardia lamblia; conditions: for Number of free Cys per monomer after treatment: GlTIM 6 mg/mL (214 µM), compound 1 mM, two hours at 37 °C; for Number of free Cys per monomer after treatment and then DTT: derivatized enzyme incubated with 5 mM DTT during 15 minutes
# T1 construct: His-tag (N, cleaved yes); TEV protease recognition site (N); made in house; host or cells: Escherichia coli
# T1 sequence (P36186 whole entry C202A): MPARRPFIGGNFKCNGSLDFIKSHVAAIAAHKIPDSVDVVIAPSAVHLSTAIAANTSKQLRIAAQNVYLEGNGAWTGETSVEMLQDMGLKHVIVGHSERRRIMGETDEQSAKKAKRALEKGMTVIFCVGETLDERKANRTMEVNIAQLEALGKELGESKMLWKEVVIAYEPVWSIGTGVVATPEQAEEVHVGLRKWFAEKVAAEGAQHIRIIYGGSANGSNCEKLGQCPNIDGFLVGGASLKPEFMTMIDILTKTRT
# Experimental: We evaluated the first option by determining the residual free Cys after derivatization with compounds and afterwards reducing agent treatment. Thus, 6 mg/mL (214 µM) of GlTIM was incubated with or without each one of compounds (1 mM) during two hours at 37 °C. It is important to remark that at the protein concentration used for this aim, a considerable quantity was precipitated. Therefore, the incubation of the samples was arrested by centrifuging and then filtration through a 3 mL Sephadex G-25 column, and the number of free Cys quantified from the soluble protein. […] In contrast, the number of Cys per monomer obtained for omeprazole, BHO2 and BHO3 treatment was respectively 2.02 ± 0.02, 1.9 ± 0.2 and 2.15 ± 015. […] An aliquot of each derivatized enzyme was withdrawn and incubated with 5 mM DTT during 15 minutes; then, the samples were filtered and the free Cys was again quantified. The number of Cys/monomer was 2.2 ± 0.2, 2,1 ± 0.22 and 1.8 ± 0.18 for omeprazole, BHO2 and BHO3, respectively.
# To carry out the experiments, the derivatized GlTIM with different molecules was incubated with 2 mM DTT and then filtered through 3 mL Sephadex G-25 column to remove the unreacted compounds. All spectroscopic assays were carried out at protein concentration of 0.2 mg/mL (7 µM). Cysteine quantification was performed spectrophotometrically using de Ellman’s reagent as described before, [36]. Briefly, 200 µg of GlTIM were suspended in TE buffer supplemented with 5% SDS; after an incubation of 10 min at 25 °C, the enzyme was added to a cuvette containing 500 µL of TE buffer supplemented with 5% SDS and 1 mM DTNB. Cysteine quantification was done following the increase of absorbance at 412 nm, using an ε M ^−1 cm ^−1 of 13,600[36].
# [5] = Solubility (remark in the discussion); assay type: physicochemical
# [6] = biological target: T2, triosephosphate isomerase of G. lamblia (GlTIM) (Giardia intestinalis, UniProt P36186, C202A); experiment: Inactivation assay of recombinant GlTIM (C202A variant); assay type: biochemical; conditions: for kinact/KI: pH 7.4, read-out: Second-order rate constant of inactivation; for Inactivation of GlTIM (in words): 2 hours at 37 °C
# T2 construct: His-tag (N, cleaved yes); TEV protease recognition site (N); made in house; host or cells: Escherichia coli
# T2 sequence (P36186 whole entry C202A): as above
# Experimental: We evaluated the effect of compounds incubating the enzyme with each one of them for 2 hours at 37 °C and the IC50 values were then calculated from the residual activity data.
# GlTIM (200 µg/mL) was incubated with increasing concentrations of compounds. After 2 hours of incubation at 37 °C, the reactions were stopped by dilution and the remaining activity was determined as described in the material and methods section.
# (§3) For all assays we used mutant GlTIM C202A in order to work with the dimeric form of enzyme; this mutant was referred in the paper as GlTIM and was prepared as described before. The recombinant GlTIM containing a His-tag in its NH-terminal together with a recognition region for tobacco […] virus protease, was expressed in Escherichia coli. The GlTIM purification was performed by using IMAC method; after His-tag was removed, the enzyme was stored at 4 °C in a buffer containing 100 mM triethanolamine, 10 mM EDTA, pH 7.4 (TE buffer). […] Mutant of GlTIM C222A and human TIM (HsTIM) were prepared as described before, [33]. Protein content of GlTIM and HsTIM was calculated by using a ε M ^−1cm^−1 of 26,600 and 32,595, respectively. For all assays, the enzymes were freshly prepared with no more of two weeks of storage.
# TIM activity was determined in a Cary50 spectrophotometer (Varian) at 25 °C using coupling assay following the conversion of D-glyceraldehyde 3-phosphate to dihydroxyacetone phosphate as described before. The reaction mixture contained TE buffer (pH 7.4) supplemented with 0.2 mM NADH, 1 mM GAP, and 0.9 U of alpha-GDH. The reaction started by adding 5 ng/mL of TIM.
# (§4) Omeprazole and compounds stock solutions were freshly prepared using 100% DMSO as solvent. […] The reaction was stopped by diluting the enzyme 40,000 times in TE buffer and then, the remaining activity was determined. The second-order rate constants of inactivation were calculated from obtaining the pseudo-first order rate constant (k 1) values at each fixed concentration of compounds by fitting them to an exponential decay. Then, the k 1 values were re-plotted against the employed concentrations of each compound; the second-order rate constant value of inactivation was obtained from the slope of these plots.
# [7] = tested on: G. lamblia WB trophozoites; experiment: Susceptibility assay of Giardia trophozoites; assay type: cell-based, Giardia lamblia; conditions: Giardia duodenalis; 48 hours at 37 °C with compound, then 48 hours in compound-free medium; ± standard error
# Experimental: The anti-giardiasic ability of compounds was tested in an in vitro. […] Thus, for BHO2 and BHO3 the values (130 and 122 µM, respectively) were around of the half of that obtained for omeprazole (300 µM).
# Figure 6 Anti-giardiasic activity of Compounds in trophozoites. Cultures of trophozoites (100,000 trophozoites/mL) were incubated during 48 hours at 37 °C with increasing concentrations of compounds. Afterward, samples were withdrawn and resuspended in a medium free of compounds. The samples were incubated for other 48 hours/37 °C and thereafter, the viability of trophozoites were quantified. The values represent ± standard deviation from three independent experiments.
# We used the G. lamblia WB reference isolate in all experiments. The splitting method used to our susceptibility assays is described below. Cultures with 100,000 trophozoites/mL on TYI-S-33 medium were incubated during 48 hours at 37 °C supplemented with increasing concentrations of compounds ranging from 32.5 to 500 µM. Afterward, samples were chilled in ice for 15 minutes, washed with medium and resuspended in 50 µL of medium free of compounds and antibiotic. Then, trophozoites were diluted in 1 mL of medium free of compounds and antibiotic, incubated for 48 hours at 37 °C and then, the viability of trophozoites was manually quantified by using a Neubauer chamber; the viability percent and IC50 was subsequently calculated.
# [8] = tested on: gingival human fibroblasts; experiment: Cytotoxicity assay (MTT) in human fibroblasts; assay type: cell-based; conditions: 24 hours, 95% confidence limits in square brackets
# Experimental: as §1, §2
# [9] = biological target: T2, triosephosphate isomerase of G. lamblia (GlTIM); conditions: cited from earlier work
# [10] = biological target: T3, human TIM (HsTIM) (Homo sapiens, UniProt P60174); experiment: Inactivation assay of human TIM; assay type: biochemical
# T3 construct: made in house
# T3 sequence (P60174 whole entry): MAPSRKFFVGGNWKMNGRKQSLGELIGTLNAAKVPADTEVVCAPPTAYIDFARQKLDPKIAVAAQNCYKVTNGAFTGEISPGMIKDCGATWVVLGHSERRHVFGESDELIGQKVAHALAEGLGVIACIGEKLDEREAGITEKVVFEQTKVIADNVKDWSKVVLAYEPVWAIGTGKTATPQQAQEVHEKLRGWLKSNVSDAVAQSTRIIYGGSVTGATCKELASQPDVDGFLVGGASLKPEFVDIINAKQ
# Experimental: as §3, with “For all assays, the enzymes were freshly prepared with no more of two weeks of storage.” left out
# (§5) TIM activity was determined in a Cary50 spectrophotometer (Varian) at 25 °C using coupling assay following the conversion of D-glyceraldehyde 3-phosphate to dihydroxyacetone phosphate as described before. […]
# as §4, with “Then, the k 1 values were re-plotted against the employed concentrations of each compound; the second-order rate constant value of inactivation was obtained from the slope of these plots.” left out
# [11] = biological target: T4, mutant GlTIM C222A (Giardia intestinalis, UniProt P36186, C202A/C222A); experiment: Inactivation assay of mutant GlTIM C222A; assay type: biochemical, Giardia lamblia
# T4 construct: made in house
# T4 sequence (P36186 whole entry C202A/C222A): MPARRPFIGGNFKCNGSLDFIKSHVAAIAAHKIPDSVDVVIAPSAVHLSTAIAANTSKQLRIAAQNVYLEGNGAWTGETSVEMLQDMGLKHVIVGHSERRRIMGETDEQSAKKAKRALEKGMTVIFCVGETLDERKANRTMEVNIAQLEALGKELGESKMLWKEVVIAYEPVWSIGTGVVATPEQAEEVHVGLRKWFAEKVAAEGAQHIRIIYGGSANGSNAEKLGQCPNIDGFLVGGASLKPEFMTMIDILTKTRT
# Experimental: as §3, with “For all assays, the enzymes were freshly prepared with no more of two weeks of storage.” left out
# as §5
# as §4, with “Then, the k 1 values were re-plotted against the employed concentrations of each compound; the second-order rate constant value of inactivation was obtained from the slope of these plots.” left out
structure (smiles),measurement,setting,value
"COc1c(C)cnc(C[S+]([O-])c2nc3ccc(C)cc3[nH]2)c1C (centres unmarked) [BHO2, 2-[(4-methoxy-3,5-dimethylpyridin-2-yl)methylsulfinyl]-5(6)-methyl-1H-benzimidazole]",CC50 mammal cells relative to IC50 for trophozoites,[1],38- to 61 fold
same,CC50 at 24 h,[2],8000 µM
same,CC50 at 24 h,[3],5000 µM
same,melting point,,221.4 to 222.8 °C
same,Number of free Cys per monomer after treatment,[4],1.9 ± 0.2 Cys/monomer
same,Solubility respect to omeprazole,[5],improved its solubility
same,IC50,[6],64 µM
same,Increase of reactivity against GlTIM respect to omeprazole,[6],three-fold
same,Reversibility of GlTIM inhibition,[6],irreversibly
same,kinact/KI,[6],1.6 ± 0.1 M⁻¹ s⁻¹
same,IC50,[7],130 µM
"Cc1ccc2nc([S+]([O-])Cc3ccccn3)[nH]c2c1 (centres unmarked) [BHO1, 5(6)-methyl-2-[(pyridin-2-ylmethyl)sulfinyl]−1H-benzimidazole]",melting point,,121.3 to 122.9 °C
same,Inactivation of GlTIM (in words),[6],inactivated scarcely
"Cc1ccc2nc([S+]([O-])Cc3nccc(OCC(F)(F)F)c3C)[nH]c2c1 (centres unmarked) [BHO3, 5(6)-Methyl-2-({[3-methyl-4-(2,2,2-trifluoroethoxy)pyridin-2-yl]methyl}sulfinyl]-1H-benzimidazole]",CC50 mammal cells relative to IC50 for trophozoites,[1],38- to 61 fold
same,CC50 at 24 h,[2],4700 µM
same,CC50 at 24 h,[3],5500 µM
same,melting point,,228.5 to 229.8 °C
same,Number of free Cys per monomer after treatment,[4],2.15 ± 015 Cys/monomer
same,Number of free Cys per monomer after treatment and then DTT,[4],1.8 ± 0.18 Cys/monomer
same,IC50,[6],100 µM
same,Increase of reactivity against GlTIM respect to omeprazole,[6],two-fold
same,Reversibility of GlTIM inhibition,[6],irreversibly
same,kinact/KI,[6],1.2 ± 0.06 M⁻¹ s⁻¹
same,IC50,[7],122 ± 1.7 µM
"COc1ccc2[nH]c([S+]([O-])Cc3ncc(C)c(OC)c3C)nc2c1 (centres unmarked) [Omeprazole, omeprazole, reference compound]",CC50 VERO cells relative to trophozoites cytotoxicity,[1],46 fold
same,CC50 at 24 h,[2],14000 µM
same,CC50 Human Fibroblasts,[8],No effect
same,CC50 Human Fibroblasts,[8]; listed as omeprazole,did not show cytotoxic effect
same,"Reversibility of GlTIM inhibition, reported before",[9],irreversible
same,"Second-order rate constant of inactivation, previously reported",[9],0.6 M⁻¹ s⁻¹
same,Number of free Cys per monomer after treatment,[4],2.02 ± 0.02 Cys/monomer
same,Number of free Cys per monomer after treatment and then DTT,[4],2.2 ± 0.2 Cys/monomer
same,IC50,[6],225 µM
same,Inactivation of GlTIM (in words),[6],inactivated the GlTIM completely
same,kinact/KI,[6],0.78 ± 0.016 M⁻¹ s⁻¹
same,Inactivation of HsTIM (in words),[10],unaffected
same,IC50,[7],300 ± 10.2 µM
same,Effect on activity of mutant GlTIM C222A (in words),[11],affects marginally
